Experiments:
NRAS WT = NRAS WT (Homo sapiens (Human), UniProt P01111+P62937); assay: Ras-Raf (BRAF RBD) disruption / FRET / MOA assay, NRAS WT; assay type: biochemical; details: read-out: IC50* NRAS WT FRET data
Summary of the method: (§1)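 TR-FRET disruption of nucleotide-loaded Ras binding to BRAF RBD via compound-driven ternary complex with cyclophilin A. Compound as 10-point 3-fold series from 30 μM final, 3 h at 25° C, then anti-His Eu-W1024 (10 nM) and anti-GST allophycocyanin (50 nM) for 1.5 h. IC50 from decreased FRET ratio versus DMSO.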

KRAS G13D = KRAS G13D (Homo sapiens (Human), UniProt P01116+P62937, G13D); assay: Ras-Raf (BRAF RBD) disruption / FRET / MOA assay, KRAS G13D; assay type: biochemical; details: read-out: IC50* KRAS G13D FRET data
Chain of KRAS G13D (P01116-2 other isoform, or with tags, fused parts or gaps G13D): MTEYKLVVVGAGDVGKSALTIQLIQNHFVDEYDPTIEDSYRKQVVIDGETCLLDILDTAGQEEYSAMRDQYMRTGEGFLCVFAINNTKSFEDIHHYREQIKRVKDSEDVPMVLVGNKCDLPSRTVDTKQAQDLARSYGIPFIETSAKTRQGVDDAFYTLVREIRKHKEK
Chain of KRAS G13D (P62937 whole entry): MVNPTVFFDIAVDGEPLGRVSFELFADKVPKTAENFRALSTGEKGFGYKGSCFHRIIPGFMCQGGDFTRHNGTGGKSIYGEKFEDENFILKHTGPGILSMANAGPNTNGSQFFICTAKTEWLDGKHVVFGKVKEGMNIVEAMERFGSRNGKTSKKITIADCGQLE
Summary of the method: (§2)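 Compounds, top final concentration 30 μM in 10-point 3-fold series, incubated 3 hours at 25° C with nucleotide-loaded Ras, cyclophilin A and BRAF RBD.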

NCI-H358 (K-Ras G12C) = assay: CellTiter-Glo cell viability assay, NCI-H358; assay type: cell-based, human; details: Homo sapiens, NCI-H358, 120 h, NCI-H358, 5-day treatment; class symbols; read-out: Additional H358 Cell Viability assay data (K-Ras G12C, IC50)
Summary of the method: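 Compounds dispensed directly onto seeded K-Ras mutant cells; plates read on day 5 after ~30 min equilibration to room temperature, by CellTiter-Glo luminescence. Signal normalized as (sample/mean DMSO)×100, then fitted to a four-parameter logistic curve.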

KRAS G12V = KRAS G12V (Homo sapiens (Human), UniProt P01116+P62937, G12V); assay: Ras-Raf (BRAF RBD) disruption / FRET / MOA assay, KRAS G12V; assay type: biochemical; details: read-out: IC50* KRAS G12V FRET data
Chain of KRAS G12V (P01116-2 other isoform, or with tags, fused parts or gaps G12V): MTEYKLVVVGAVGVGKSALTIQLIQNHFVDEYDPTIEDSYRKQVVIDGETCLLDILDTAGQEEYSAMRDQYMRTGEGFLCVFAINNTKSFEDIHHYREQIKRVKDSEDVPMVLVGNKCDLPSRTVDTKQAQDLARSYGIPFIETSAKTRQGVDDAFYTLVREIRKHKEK
Chain of KRAS G12V (P62937 whole entry): as the sequence (P62937 whole entry) above
Summary of the method: as §2

KRAS G12D = KRAS G12D (Homo sapiens (Human), UniProt P01116+P62937, G12D); assay: Ras-Raf (BRAF RBD) disruption / FRET / MOA assay, KRAS G12D; assay type: biochemical; details: Ras-Raf disruption/FRET/MOA assay; class symbols; read-out: KRAS G12D FRET data IC50
Chain of KRAS G12D (P01116-2 other isoform, or with tags, fused parts or gaps G12D): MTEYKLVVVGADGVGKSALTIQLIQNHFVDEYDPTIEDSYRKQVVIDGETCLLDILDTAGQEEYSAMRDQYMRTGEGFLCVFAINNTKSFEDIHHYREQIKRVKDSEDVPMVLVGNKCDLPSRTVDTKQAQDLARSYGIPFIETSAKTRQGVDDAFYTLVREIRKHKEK
Chain of KRAS G12D (P62937 whole entry): as the sequence (P62937 whole entry) above
Summary of the method: as §2

K-Ras G13C = K-Ras G13C (Homo sapiens (Human), UniProt P01116+P62937, G13C); assay: Ras-Raf (BRAF RBD) disruption / FRET / MOA assay, KRAS G13C; assay type: biochemical; details: KRAS G13C; Ras-Raf disruption/FRET/MOA assay; read-out: IC50* KRAS G13C FRET data
Chain of K-Ras G13C (P01116-2 other isoform, or with tags, fused parts or gaps G13C): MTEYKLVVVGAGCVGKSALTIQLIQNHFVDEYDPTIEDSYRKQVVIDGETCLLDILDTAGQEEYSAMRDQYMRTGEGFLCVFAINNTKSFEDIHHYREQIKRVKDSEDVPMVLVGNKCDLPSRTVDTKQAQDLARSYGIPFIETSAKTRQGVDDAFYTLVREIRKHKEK
Chain of K-Ras G13C (P62937 whole entry): as the sequence (P62937 whole entry) above
Summary of the method: as §2

NRAS G12C = NRAS G12C (Homo sapiens (Human), UniProt P01111+P62937, G12C); assay: Ras-Raf (BRAF RBD) disruption / FRET / MOA assay, NRAS G12C; assay type: biochemical; details: read-out: IC50* NRAS G12C FRET data
Chain of NRAS G12C (P01111 whole entry G12C): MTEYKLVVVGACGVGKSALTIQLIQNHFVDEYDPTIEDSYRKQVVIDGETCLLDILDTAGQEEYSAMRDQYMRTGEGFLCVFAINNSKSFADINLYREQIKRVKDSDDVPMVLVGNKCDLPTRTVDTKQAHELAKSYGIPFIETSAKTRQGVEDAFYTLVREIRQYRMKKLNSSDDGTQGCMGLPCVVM
Chain of NRAS G12C (P62937 whole entry): as the sequence (P62937 whole entry) above
Summary of the method: as §2

KRAS G12S = KRAS G12S (Homo sapiens (Human), UniProt P01116+P62937, G12S); assay: Ras-Raf (BRAF RBD) disruption / FRET / MOA assay, KRAS G12S; assay type: biochemical; details: Ras-Raf disruption/FRET/MOA assay; class symbols; read-out: KRAS G12S FRET data IC50
Chain of KRAS G12S (P01116-2 other isoform, or with tags, fused parts or gaps G12S): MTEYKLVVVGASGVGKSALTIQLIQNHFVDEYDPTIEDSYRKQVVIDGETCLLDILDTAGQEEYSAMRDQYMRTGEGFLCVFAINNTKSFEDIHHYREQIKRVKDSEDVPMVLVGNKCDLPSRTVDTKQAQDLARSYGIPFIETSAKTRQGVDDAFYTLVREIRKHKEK
Chain of KRAS G12S (P62937 whole entry): as the sequence (P62937 whole entry) above
Summary of the method: as §2

KRAS WT = KRAS WT (Homo sapiens (Human), UniProt P01116+P62937); assay: Ras-Raf (BRAF RBD) disruption / FRET / MOA assay, KRAS WT; assay type: biochemical; details: read-out: IC50* KRAS WT FRET data
Chain of KRAS WT (P01116-2 other isoform, or with tags, fused parts or gaps): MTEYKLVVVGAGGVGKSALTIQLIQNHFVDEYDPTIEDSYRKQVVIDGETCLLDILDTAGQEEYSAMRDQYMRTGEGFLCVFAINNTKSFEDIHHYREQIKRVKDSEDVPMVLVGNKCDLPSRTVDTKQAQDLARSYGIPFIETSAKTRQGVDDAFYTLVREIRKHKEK
Chain of KRAS WT (P62937 whole entry): as the sequence (P62937 whole entry) above
Summary of the method: as §2

KRAS Q61H = KRAS Q61H (Homo sapiens (Human), UniProt P01116+P62937, Q61H); assay: Ras-Raf (BRAF RBD) disruption / FRET / MOA assay, KRAS Q61H; assay type: biochemical; details: Ras-Raf disruption/FRET/MOA assay; class symbols; read-out: KRAS Q61H FRET data IC50
Chain of KRAS Q61H (P01116-2 other isoform, or with tags, fused parts or gaps Q61H): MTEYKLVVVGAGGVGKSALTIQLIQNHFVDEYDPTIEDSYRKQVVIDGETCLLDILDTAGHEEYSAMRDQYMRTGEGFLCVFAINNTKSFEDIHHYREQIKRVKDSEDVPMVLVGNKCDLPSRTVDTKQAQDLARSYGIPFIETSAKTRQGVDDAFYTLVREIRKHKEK
Chain of KRAS Q61H (P62937 whole entry): as the sequence (P62937 whole entry) above
Summary of the method: as §1

K-Ras G12C = K-Ras G12C (Homo sapiens (Human), UniProt P01116+P62937, G12C); assay: Ras-Raf (BRAF RBD) disruption / FRET / MOA assay, KRAS G12C; assay type: biochemical; details: KRAS G12C; Ras-Raf disruption/FRET/MOA assay; read-out: IC50* KRAS G12C FRET data
Chain of K-Ras G12C (P01116-2 other isoform, or with tags, fused parts or gaps G12C): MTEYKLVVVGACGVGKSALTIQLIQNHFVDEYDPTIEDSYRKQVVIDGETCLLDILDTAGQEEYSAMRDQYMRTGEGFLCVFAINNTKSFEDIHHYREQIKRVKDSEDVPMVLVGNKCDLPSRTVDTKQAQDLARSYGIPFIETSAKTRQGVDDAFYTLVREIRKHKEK
Chain of K-Ras G12C (P62937 whole entry): as the sequence (P62937 whole entry) above
Summary of the method: as §2

NRAS Q61R = NRAS Q61R (Homo sapiens (Human), UniProt P01111+P62937, Q61R); assay: Ras-Raf (BRAF RBD) disruption / FRET / MOA assay, NRAS Q61R; assay type: biochemical; details: NRAS Q61R; Ras-Raf disruption/FRET/MOA assay; read-out: IC50* NRAS Q61R FRET data
Chain of NRAS Q61R (P01111 whole entry Q61R): as the sequence (P01111 whole entry G12C) above, with C12G, Q61R counted along it
Chain of NRAS Q61R (P62937 whole entry): as the sequence (P62937 whole entry) above
Summary of the method: as §1

Chain of NRAS WT (P01111 whole entry): as the sequence (P01111 whole entry G12C) above, with C12G counted along it
Chain of NRAS WT (P62937 whole entry): as the sequence (P62937 whole entry) above

| Structure (SMILES) | IC50 (NRAS WT) [µM] | IC50 (KRAS G13D) [µM] | IC50 (NCI-H358 (K-Ras G12C)) [µM] | IC50 (KRAS G12V) [µM] | IC50 (KRAS G12D) [µM] | IC50 (K-Ras G13C) [µM] | IC50 (NRAS G12C) [µM] | IC50 (KRAS G12S) [µM] | IC50 (KRAS WT) [µM] | IC50 (KRAS Q61H) [µM] | IC50 (K-Ras G12C) [µM] | IC50 (NRAS Q61R) [µM] |
| --- | --- | --- | --- | --- | --- | --- | --- | --- | --- | --- | --- | --- |
| C=CC(=O)N1CCC(F)(C(=O)N(C)[C@H](C(=O)N[C@H]2C[C@H]3CN(CCO3)c3ccc4c(c3)c(c(-c3cccnc3[C@H](C)OC)n4CC)CC(C)(C)COC(=O)[C@@H]3CCCN(N3)C2=O)C(C)C)CC1 (atropisomer, axis not shown) [Example A722, 1-acryloyl-N-((2S)-1-(((6^3S,4S)-1^1-ethyl-1^2-(2-((S)-1-methoxyethyl)pyridin-3-yl)-10,10-dimethyl-5,7-dioxo-6^1,6^2,6^3,6^4,6^5,6^6-hexahydro-1^1H-8-oxa-2(4,2)-morpholina-1(5,3)-indola-6(1,3)-pyridazinacycloundecaphane-4-yl)amino)-3-methyl-1-oxobutan-2-yl)-4-fluoro-N-methylpiperidine-4-carboxamide] | 0.1 to 1 | 1 to 10 | 0.01 to 0.1 | 1 to 10 | 1 to 10 | 0.1 to 1 | 0.01 to 0.1 | 1 to 10 | 0.1 to 1 | 1 to 10 | 0.01 to 0.1 | 1 to 10 |
| C=CC(=O)N1CC(OC[C@H](C(=O)N[C@H]2C[C@H]3CN(CCO3)c3ccc4c(c3)c(c(-c3cccnc3[C@H](C)OC)n4CC(F)(F)F)CC(C)(C)COC(=O)[C@@H]3CCCN(N3)C2=O)C(C)C)C1 (atropisomer, axis not shown) [Example A723] | 1 to 10 | > 10 | 0.01 to 0.1 | 1 to 10 | > 10 | 1 to 10 | 0.1 to 1 | 1 to 10 | 1 to 10 | 1 to 10 | 0.1 to 1 | > 10 |
| CCn1c(-c2cccnc2[C@H](C)OC)c2c3cc(ccc31)-c1csc(n1)C[C@H](NC(=O)[C@H](C(C)C)N(C)C(=O)N(C)C1CN(C(=O)/C=C/[C@H]3CCCN3C)C1)C(=O)N1CCC[C@H](N1)C(=O)OCC(C)(C)C2 (atropisomer, axis not shown) [Example A729] | 0.1 to 1 | 0.1 to 1 | 0.1 to 1 | 1 to 10 | 1 to 10 | 0.1 to 1 | 0.1 to 1 | 0.1 to 1 | 0.1 to 1 | 0.1 to 1 | 0.1 to 1 | 1 to 10 |
| CCn1c(-c2cccnc2[C@H](C)OC)c2c3cc(ccc31)-c1csc(n1)C[C@H](NC(=O)[C@H](C(C)C)N(C)C(=O)N(C)C1CN(C(=O)/C=C/[C@@H]3CCCN3C)C1)C(=O)N1CCC[C@H](N1)C(=O)OCC(C)(C)C2 (atropisomer, axis not shown) [Example A730] | 0.1 to 1 | 0.1 to 1 | 0.01 to 0.1 | 1 to 10 | 1 to 10 | 0.1 to 1 | 0.01 to 0.1 | 0.1 to 1 | 0.1 to 1 | 0.1 to 1 | 0.01 to 0.1 | 1 to 10 |
| CC#CC(=O)N1CC(N(C)C(=O)N(C)[C@H](C(=O)N[C@H]2Cc3nc(cs3)-c3ccc4c(c3)c(c(-c3cccnc3[C@H](C)OC)n4CC)CC(C)(C)COC(=O)[C@@H]3CCCN(N3)C2=O)C(C)C)C1 (atropisomer, axis not shown) [Example A731] | 0.1 to 1 | 1 to 10 | 0.1 to 1 | 1 to 10 | 1 to 10 | 0.1 to 1 | 0.1 to 1 | 0.1 to 1 | 0.1 to 1 | 0.1 to 1 | 0.1 to 1 | 1 to 10 |
| C=C(F)C(=O)N1CC(N(C)C(=O)N(C)[C@H](C(=O)N[C@H]2Cc3nc(cs3)-c3ccc4c(c3)c(c(-c3cccnc3[C@H](C)OC)n4CC)CC(C)(C)COC(=O)[C@@H]3CCCN(N3)C2=O)C(C)C)C1 (atropisomer, axis not shown) [Example A732] | 0.1 to 1 | 1 to 10 | 0.01 to 0.1 | 1 to 10 | 1 to 10 | 0.1 to 1 | 0.1 to 1 | 0.1 to 1 | 0.1 to 1 | 0.1 to 1 | 0.1 to 1 | 0.1 to 1 |
| C=CC(=O)N1CCN(C(=O)N(C)[C@H](C(=O)N[C@H]2Cc3nc(cs3)-c3ccc4c(c3)c(c(-c3cccnc3[C@H](C)OC)n4CC)CC(C)(C)COC(=O)[C@@H]3CCCN(N3)C2=O)C(C)C)[C@H]2C[C@H]21 (atropisomer, axis not shown) [Example A737] | 0.01 to 0.1 | 0.1 to 1 | 0.01 to 0.1 | 0.1 to 1 | 0.1 to 1 | 0.01 to 0.1 | 0.01 to 0.1 | 0.1 to 1 | 0.01 to 0.1 | 0.01 to 0.1 | 0.01 to 0.1 | 0.01 to 0.1 |
| C=CS(=O)(=O)N1CCC(C(=O)N(C)[C@H](C(=O)N[C@H]2Cc3nc(cs3)-c3ccc4c(c3)c(c(-c3cncnc3)n4CC)CC(C)(C)COC(=O)[C@@H]3CCCN(N3)C2=O)C(C)C)C1 (single isomer, unassigned) [Example A170] | > 10 | > 10 | 0.1 to 1 | > 10 | > 10 | 1 to 10 | 1 to 10 | > 10 | > 10 | > 10 | 1 to 10 | > 10 |
| C=CS(=O)(=O)N1CCC(C(=O)N(C)[C@H](C(=O)N[C@H]2Cc3cccc(c3)-c3ccc4c(c3)c(c(-c3cncnc3)n4CC)CC(C)(C)COC(=O)[C@@H]3CCCN(N3)C2=O)C(C)C)C1 (single isomer, unassigned) [Example A171] | > 10 | > 10 | 0.1 to 1 | > 10 | > 10 | 1 to 10 | 1 to 10 | > 10 | > 10 | > 10 | 1 to 10 | > 10 |
| C=CC(=O)N1CC[C@H](C(=O)N(C)[C@H](C(=O)N[C@H]2Cc3cc(ccn3)-c3ccc4c(c3)c(c(-c3cccnc3COC)n4CC)CC(C)(C)COC(=O)[C@@H]3CCCN(N3)C2=O)C(C)C)C1 [Example A136] | > 10 | > 10 | > 1 | > 10 | > 10 | > 10 | 1 to 10 | > 10 | > 10 | 1 to 10 | 1 to 10 | > 10 |
| C=CC(=O)N1CC[C@H](C(=O)N(C)[C@H](C(=O)N[C@H]2Cc3cc(O)cc(c3)-c3ccc4c(c3)c(c(-c3cncs3)n4CC)CC(C)(C)COC(=O)[C@@H]3CCCN(N3)C2=O)C(C)C)C1 [Example A143] | > 10 | > 10 | 0.01 to 0.1 | 1 to 10 | > 10 | > 10 | 0.1 to 1 | 1 to 10 | > 10 | 1 to 10 | 0.1 to 1 | > 10 |
| C=CC(=O)N1CC[C@H](C(=O)N(C)[C@H](C(=O)N[C@H]2Cc3cc(O)cc(c3)-c3ccc4c(c3)c(c(-c3cccc(=O)n3C(C)C)n4CC)CC(C)(C)COC(=O)[C@@H]3CCCN(N3)C2=O)C(C)C)C1 [Example A151] | 1 to 10 | > 10 | 0.1 to 1 | 1 to 10 | > 10 | > 10 | 0.1 to 1 | 1 to 10 | > 10 | 1 to 10 | 0.1 to 1 | > 10 |
